Assay results published in patent US20240025919A1, “AZA-TETRACYCLIC OXAZEPINE COMPOUNDS AND USES THEREOF” (Genentech, Inc., priority 2022, published 2024).

Columns and labels:
KRAS G12D = KRAS G12D (Homo sapiens (Human), UniProt P01116, G12D); test: KRAS G12D LoEnz Biochemical Assay, BODIPY-GDP Exchange TR-FRET (SOS1-mediated nucleotide exchange); settings: read-out: KRas (G12D) GDP HTRF IC50
KRAS WT [1] = molecular target: T1, KRAS WT (Homo sapiens (Human), UniProt P01116); test: KRAS WT Biochemical Assay, BODIPY-GDP Exchange TR-FRET (Example 502; 0.06 nM KRAS WT, 15 nM GDP, 300 nM SOS1, 120-minute incubation); settings: read-out: KRas HTRF IC50
T1 sequence (P01116-2 other isoform, or with tags, fused parts or gaps): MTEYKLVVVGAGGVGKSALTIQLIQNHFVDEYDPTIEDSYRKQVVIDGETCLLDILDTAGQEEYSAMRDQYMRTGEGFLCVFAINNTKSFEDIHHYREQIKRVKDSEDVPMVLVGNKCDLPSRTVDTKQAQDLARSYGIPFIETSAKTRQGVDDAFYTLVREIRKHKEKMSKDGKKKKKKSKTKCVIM
Protocol: Example 502: KRAS WT Biochemical Assay, BODIPY-GDP Exchange TR-FRET. Biochemical compound potencies are assessed by evaluating inhibition of SOS1-mediated nucleotide exchange in KRAS WT. In this assay, the SOS1-promoted exchange of fluorescently-labeled GDP (BOPIDY-GDP) is monitored by time-resolved fluorescence resonance energy transfer (TR-FRET). Compounds solubilized in DMSO are dispensed as concentration series into 384-well white assay plates. A preformed complex of 0.06 nM biotin-tagged recombinant human KRAS WT, 15 nM GDP and 0.06 nM terbium-labeled streptavidin (CisBIO) prepared in 10 uL/well assay buffer (20 mM HEPES, pH 7.5, 50 mM NaCl, 10 mM MgCl2, 0.01% Tween-20 and 1 mM dithiothreitol) is added and allowed to incubate for 10-minutes at room temperature. The reaction is initiated with the addition of 5 uL 300 nM recombinant human SOS1 and 300 nM BODIPY-GDP in assay buffer. After a 120-minute incubation, the fluorescence is measured with excitation at 337 nm and emission at 490 and 520 nm. The TR-FRET ratio is determined as the fluorescence at 520 nm divided by the fluorescence at 490 nm multiplied by 10,000. The results are normalized to percent inhibition based on control samples: DMSO (0% inhibition) and control compound at a concentration that inhibits completely (100% inhibition). The normalized TR-FRET results are plotted against compound concentration, and the data are fit to a 4-parameter Hill equation to determine the IC50 values.

KRAS WT [2] = molecular target: T1, KRAS WT; test: KRAS WT Biochemical Assay, BODIPY-GDP Exchange TR-FRET (Example 501; 3 nM KRAS WT, 3 nM SOS1, 60-minute incubation)
Summary of the method: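 SOS1-mediated exchange assay: 3 nM biotin-KRAS WT with terbium-streptavidin, started with 3 nM SOS1 and 300 nM BODIPY-GDP, HEPES pH 7.5 with MgCl2. TR-FRET (520/490 nm) read after 60 min; normalized to DMSO and full-inhibition control, IC50 from 4-parameter Hill fit.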

KRAS G12D, sequence (P01116-2 other isoform, or with tags, fused parts or gaps G12D): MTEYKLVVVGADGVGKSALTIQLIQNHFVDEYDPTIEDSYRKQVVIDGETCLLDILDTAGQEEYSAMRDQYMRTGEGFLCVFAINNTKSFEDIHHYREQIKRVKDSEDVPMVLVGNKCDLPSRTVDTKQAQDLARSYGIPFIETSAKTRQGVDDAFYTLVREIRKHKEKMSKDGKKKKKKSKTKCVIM

Structure (SMILES)	IC50 (KRAS G12D) [nM]	IC50 (KRAS WT [1]) [nM]	IC50 (KRAS WT [2]; read-out: KRas(wt) GDP HTRF IC50) [nM]	IC50 (KRAS WT [2]; read-out: KRas HTRF IC50) [nM]
Cc1cc(N)cc(-c2nc3c4c(nc(OC[C@@H]5CC[C@H]6COCCN65)nc4c2F)N2C[C@H]4CC[C@H](N4)[C@H]2[C@H](C)O3)c1C(F)(F)F [Compound 67, 3-((5S,5aS,6S,9R)-1-Fuoro-1-(((6S,8aS)-hexahydro-1H-pyrrolo[2,1-c][1,4]oxazin-6-yl)methoxy)-5-methyl-5a,6,7,8,9,10-hexahydro-5H-4-oxa-3,10a,11,13,14-pentaaza-6,9-methanonaphtho[1,8-ab]heptalen-2-yl)-5-methyl-4-(trifluoromethyl)aniline]	0.17	7.53	–	–
Cc1c(F)c(N)cc(-c2nc3c4c(nc(OC[C@]56COC[C@H]5CCN6C)nc4c2F)N2C[C@H]4CC[C@H](N4)[C@H]2[C@H](C)O3)c1C(F)(F)F (single isomer, unassigned) [134 (isomer 1)]	0.19	39.4	–	–
Cc1cc(-c2nc3c4c(nc(OC[C@@]56CCCN5C[C@H](F)C6)nc4c2F)N2C[C@H]4CC[C@H](N4)[C@H]2[C@H](C)O3)c(F)c(N)n1 [Compound 177, 3-Fluoro-4-((5S,5aS,6S,9R)-1-fluoro-12-(((2R,7aS)-2-fluorotetrahydro-1H-pyrrolizin-7°(5H)-yl)methoxy)-5-methyl-5°,6,7,8,9,10-hexahydro-5H-4-oxa-3,10°,11,13,14-pentaaza-6,9-methanonaphtho[1,8-ab]heptalen-2-yl)-6-methylpyridin-2-amine]	126	11700	–	–
Cc1c(F)c(N)cc(-c2nc3c4c(nc(OC[C@@]56CCCN5C[C@H](F)C6)nc4c2F)N2C[C@H]4CC[C@H](N4)[C@H]2[C@H](C)O3)c1S(C)(=O)=O [Compound 180, 2-Fluoro-5-((5S,5aS,6S,9R)-1-fluoro-12-(((2R,7aS)-2-fluorotetrahydro-1H-pyrrolizin-7a(5H)-yl)methoxy)-5-methyl-5a,6,7,8,9,10-hexahydro-5H-4-oxa-3,10a,11,13,14-pentaaza-6,9-methanonaphtho[1,8-ab]heptalene-2-yl)-3-methyl-4-(methylsulfonyl)aniline]	17.4	2740	–	–
Cc1c(F)c(N)cc(-c2nc3c4c(nc(OC[C@@H]5CC[C@@H]6CC(C(=O)N(C)C)CCN65)nc4c2F)N2C[C@H]4CC[C@H](N4)[C@H]2[C@H](C)O3)c1C(F)(F)F (single isomer, unassigned) [133 (isomer 3)]	0.14	23.3	–	–
Cc1c(F)c(N)cc(-c2nc3c4c(nc(OC[C@@]56CCC(C)N5C[C@H](F)C6)nc4c2F)N2C[C@H]4CC[C@H](N4)[C@H]2[C@H](C)O3)c1C(F)(F)F (stereo partly drawn) [Compound 122, 2-fluoro-5-((5S,5aS,6S,9R)-1-fluoro-12-(((2R,7aS)-2-fluoro-5-methyltetrahydro-1H-pyrrolizin-7a(5H)-yl)methoxy)-5-methyl-5a,6,7,8,9,10-hexahydro-5H-4-oxa-3,10a,11,13,14-pentaaza-6,9-methanonaphtho[1,8-ab]heptalen-2-yl)-3-methyl-4-(trifluoromethyl)aniline]	0.11	3.72	–	–
Cc1cc(N)c(F)c(-c2nc3c4c(nc(OC[C@@H]5CC[C@H]6COCCN65)nc4c2F)N2C[C@H]4CC[C@H](N4)[C@H]2[C@H](C)O3)c1C(F)(F)F [Compound 97, 2-Fluoro-3-((5S,5aS,6S,9R)-1-fluoro-12-(((6S,8aS)-hexahydro-1H-pyrrolo[2,1-c][1,4]oxazin-6-yl)methoxy)-5-methyl-5a,6,7,8,9,10-hexahydro-5H-4-oxa-3,10a,11,13,14-pentaaza-6,9-methanonaphtho[1,8-ab]heptalen-2-yl)-5-methyl-4-(trifluoromethyl)aniline]	0.37	43.7	–	–
C[C@@H]1Oc2nc(-c3cc(N)c(F)c(F)c3CC(F)F)c(F)c3cc(OC[C@@H]4CC[C@H]5COCCN54)nc(c23)N2C[C@H]3CC[C@H](N3)[C@@H]12 [Compound 158, 4-(2,2-Difluoroethyl)-2,3-difluoro-5-((5S,5aS,6S,9R)-1-fluoro-13-(((6S,8aS)-hexahydro-1H-pyrrolo[2,1-c][1,4]oxazin-6-yl)methoxy)-5-methyl-5a,6,7,8,9,10-hexahydro-5H-6,9-epiminoazepino[2′,1′:3,4][1,4]oxazepino[5,6,7-ij][2,7-]naphthyridin-2-yl)aniline]	–	121	–	–
Cc1cc(N)nc(-c2nc3c4c(ncnc4c2F)N2C[C@H]4CC[C@H](N4)[C@H]2CO3)c1C(F)(F)F [Compound 52, 6-((5aS,6S,9R)-1-Fluoro-5a,6,7,8,9,10-hexahydro-5H-4-oxa-3,10a,11,13,14-pentaaza-6,9-methanonaphtho[1,8-ab]heptalen-2-yl)-4-methyl-5-(trifluoromethyl)pyridin-2-amine]	2140	–	194000	–
Cc1nc(N)cc(-c2nc3c4c(nc(OCC5(CN6C[C@@H](C)O[C@@H](C)C6)CC5)nc4c2F)N2C[C@H]4CC[C@H](N4)[C@H]2[C@H](C)O3)c1C(F)(F)F [Compound 218, 4-((5S,5aS,6S,9R)-12-((1-(((2R,6S)-2,6-Dimethylmorpholino)methyl)cyclopropyl)methoxy)-1-fluoro-5-methyl-5a,6,7,8,9,10-hexahydro-5H-4-oxa-3,10a,11,13,14-pentaaza-6,9-methanonaphtho[1,8-ab]heptalen-2-yl)-6-methyl-5-(trifluoromethyl)pyridin-2-amine]	0.29	–	–	14.1
Cc1nc(N)cc(-c2nc3c4c(nc(OC[C@@]56CCCN5C[C@H](F)C6)nc4c2F)N2C[C@H]4CC[C@H](N4)[C@H]2[C@H](C)O3)c1OC(F)F [Compound 188, 5-(Difluoromethoxy)-4-((5S,5aS,6S,9R)-1-fluoro-12-(((2R,7aS)-2-fluorotetrahydro-1H-pyrrolizin-7a(5H)-yl)methoxy)-5-methyl-5a,6,7,8,9,10-hexahydro-5H-4-oxa-3,10a,11,13,14-pentaaza-6,9-methanonaphtho[1,8-ab]heptalene-2-yl)-6-methylpyridin-2-amine]	1.26	–	–	225
Cc1nc(N)c(F)c(-c2nc3c4c(nc(OC[C@@]56CCCN5C[C@H](F)C6)nc4c2F)N2C[C@H]4CC[C@H](N4)[C@H]2[C@H](C(F)(F)F)O3)c1C(F)(F)F [Compound 256, 3-Fluoro-4-((5R,5aS,6S,9R)-1-fluoro-12-(((2R,7aS)-2-fluorotetrahydro-1H-pyrrolizin-7a(5H)-yl)methoxy)-5-(trifluoromethyl)-5a,6,7,8,9,10-hexahydro-5H-4-oxa-3,10a,11,13,14-pentaaza-6,9-methanonaphtho[1,8-ab]heptalen-2-yl)-6-methyl-5-(trifluoromethyl)pyridin-2-amine]	0.82	–	–	17
C[C@@H]1Oc2nc(-c3cc(N)c(=O)n(C)c3C(F)(F)F)c(F)c3nc(OC[C@@]45CCCN4C[C@H](F)C5)nc(c23)N2C[C@H]3CC[C@H](N3)[C@@H]12 [Compound 184, 3-Amino-5-((5S,5aS,6S,9R)-1-fluoro-12-(((2R,7aS)-2-fluorotetrahydro-1H-pyrrolizin-7a(5H)-yl)methoxy)-5-methyl-5a,6,7,8,9,10-hexahydro-5H-4-oxa-3,10a,11,13,14-pentaaza-6,9-methanonaphtho[1,8-ab]heptalene-2-yl)-1-methyl-6-(trifluoromethyl)pyridin-2(1H)-one]	1.98	–	–	393
Cc1nc(N)c(F)c(-c2nc3c4c(nc(OCC5(CN6C[C@@H]7C[C@H]6CO7)CC5)nc4c2F)N2C[C@H]4CC[C@H](N4)[C@H]2[C@H](C)O3)c1C(F)(F)F [Compound 222, 4-((5S,5aS,6S,9R)-12-((1-(((1S,4S)-2-Oxa-5-azabicyclo[2.2.1]heptan-5-yl)methyl)cyclopropyl)methoxy)-1-fluoro-5-methyl-5a,6,7,8,9,10-hexahydro-5H-4-oxa-3,10a,11,13,14-pentaaza-6,9-methanonaphtho[1,8-ab]heptalene-2-yl)-3-fluoro-6-methyl-5-(trifluoromethyl)pyridin-2-amine]	3.39	–	–	45.7
Cc1nc(N)c(Cl)c(-c2nc3c4c(nc(OC[C@@]56CCCN5C[C@H](F)C6)nc4c2F)N2C[C@H]4CC[C@H](N4)[C@H]2[C@H](C)O3)c1C(F)(F)F [Compound 197, 3-Chloro-4-((5S,5aS,6S,9R)-1-fluoro-12-(((2R,7aS)-2-fluorotetrahydro-1H-pyrrolizin-7a(5H)-yl)methoxy)-5-methyl-5a,6,7,8,9,10-hexahydro-5H-4-oxa-3,10a,11,13,14-pentaaza-6,9-methanonaphtho[1,8-ab]heptalen-2-yl)-6-methyl-5-(trifluoromethyl)pyridin-2-amine]	0.46	–	–	59.8
